Test results from US12714675B2, “Solid dosage form production” (UNIVERSITY OF LANCASHIRE, priority 2016, dated 2026).

Assay: optimization of highly concentrated dipyridamole solution for liquid capsule feed (solubility in solvent systems)
Format: physicochemical
Settings: drug solution in PEG 400
Method: A model drug, dipyridamole, was chosen to test the suitability of this system to provide immediate and extended drug release. Its fluoresce colour and ease of detection allows focusing on the development process. It was decided that the drug solution PEG 400 (10 mg/ml) is the maximum concentration that can be readily prepared.

maximum concentration that can be readily prepared: 10 mg/mL
Structure (SMILES): OCCN(CCO)c1nc(N2CCCCC2)c2nc(N(CCO)CCO)nc(N3CCCCC3)c2n1 [dipyridamole]
